A short description of assay [1]: Binding affinity to oxyhemoglobin in ammonium acetate buffer at pH 8.0 over 24 hrs by spectrophotometry.
Assay [2] is described as follows: Binding affinity to methemoglobin in phosphate buffer at pH 7.0 over 30 mins by spectrophotometry.
The nature of assay [3]: Binding affinity to oxyhemoglobin in phosphate buffer at pH 7.0 at room temperature over 24 hrs by spectrophotometry.
Assay [4] is described as follows: Binding affinity to methemoglobin in phosphate buffer at pH 5.0 over 30 mins by spectrophotometry.
Assay [5] is described as follows: Binding affinity to oxyhemoglobin in phosphate buffer at pH 7.0 at 37 degC over 24 hrs by spectrophotometry.
The nature of assay [6]: Binding affinity to heme in sodium acetate buffer at pH 5.0.
Assay [7] is described as follows: Binding affinity to heme in ammonium acetate buffer at pH 5.0 at 40 uM in presence of ferrocyanide.
A short description of assay [8]: Binding affinity to hemin in sodium acetate buffer at pH 5.0.

Activity calls are given as the source filed them. No cut-off for these calls is given here.

Regarding `C[C@H]1[C@H](OC(=O)CCC(=O)O)O[C@@H]2O[C@@]3(C)CC[C@H]4[C@H](C)CC[C@@H]1[C@@]24OO3`, the outcome in assay [1], in assay [2], in assay [3], in assay [4] and in assay [5] was inactive.
Regarding `C[C@@H]1CC[C@H]2[C@@H](C)C(=O)O[C@@H]3O[C@@]4(C)CC[C@@H]1[C@]32OO4`, the Activity result in assay [6] is “Dose-dependent effect”. For the same compound, in assay [7], the result was Active. In assay [8], the result was inactive.
